Ki and inhibition data for eleven molecules are collected here from ChEMBL document CHEMBL3085649, “2'-Deoxyuridine 5'-monophosphate substrate displacement in thymidylate synthase through 6-hydroxy-2H-naphtho[1,8-bc]furan-2-one derivatives” (J Med Chem, 2013).

Experiment [1] deals with T1, Thymidylate synthase (Lactobacillus casei, UniProt P00469).
T1 sequence (P00469 whole entry): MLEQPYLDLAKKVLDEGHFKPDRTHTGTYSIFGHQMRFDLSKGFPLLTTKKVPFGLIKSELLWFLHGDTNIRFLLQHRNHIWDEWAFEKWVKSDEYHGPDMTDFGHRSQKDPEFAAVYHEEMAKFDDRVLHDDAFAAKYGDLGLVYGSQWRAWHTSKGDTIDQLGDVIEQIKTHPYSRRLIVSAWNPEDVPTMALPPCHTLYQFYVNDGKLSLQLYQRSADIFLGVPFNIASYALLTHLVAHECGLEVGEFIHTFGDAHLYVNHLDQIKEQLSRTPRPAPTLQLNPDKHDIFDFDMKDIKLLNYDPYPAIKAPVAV
Kind of experiment: Inhibition of Lactobacillus casei thymidylate synthase using MTHF and dUMP as substrates. Details: species or system Lacticaseibacillus casei.

Experiment [2] concerns the target T2, Thymidylate synthase (Pneumocystis carinii, UniProt P13100).
T2 sequence (P13100 whole entry): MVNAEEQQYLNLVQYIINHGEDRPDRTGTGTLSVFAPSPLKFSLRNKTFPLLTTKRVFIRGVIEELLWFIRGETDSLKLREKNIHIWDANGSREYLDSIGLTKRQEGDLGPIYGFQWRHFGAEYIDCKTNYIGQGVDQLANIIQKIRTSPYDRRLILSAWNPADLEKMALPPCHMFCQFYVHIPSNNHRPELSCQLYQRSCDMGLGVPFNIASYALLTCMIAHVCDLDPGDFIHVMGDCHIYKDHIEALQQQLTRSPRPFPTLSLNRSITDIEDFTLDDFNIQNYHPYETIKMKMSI
As to the kind of experiment: Inhibition of Pneumocystis carinii thymidylate synthase using MTHF and dUMP as substrates.

In the next experiment the test system is Enterococcus faecalis. Kind of experiment: Inhibition of Enterococcus fecalis thymidylate synthase using MTHF and dUMP as substrates at 100 uM.
The target of experiment [3] is Thymidylate synthase (Homo sapiens) (UniProt P04818). As to the kind of experiment: Inhibition of human thymidylate synthase using MTHF and dUMP as substrates at 100 uM.
Chain of Thymidylate synthase (Homo sapiens) (P04818 2-313 limits assumed): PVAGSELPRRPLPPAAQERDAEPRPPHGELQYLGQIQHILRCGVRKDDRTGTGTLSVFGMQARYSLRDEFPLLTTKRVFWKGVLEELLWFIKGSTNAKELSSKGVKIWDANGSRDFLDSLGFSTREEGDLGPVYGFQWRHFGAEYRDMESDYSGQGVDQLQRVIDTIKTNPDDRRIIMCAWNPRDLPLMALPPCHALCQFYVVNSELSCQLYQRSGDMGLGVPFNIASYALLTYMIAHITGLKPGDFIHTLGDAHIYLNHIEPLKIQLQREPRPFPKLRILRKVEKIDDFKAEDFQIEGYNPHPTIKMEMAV
In a further experiment the test system is Escherichia coli. Kind of experiment: Inhibition of Escherichia coli thymidylate synthase using MTHF and dUMP as substrates at 100 uM.
Experiment [4] addresses T3, Thymidylate synthase (Lactobacillus casei) (UniProt P00469).
T3 sequence (whole entry): T1 sequence (P00469 whole entry)
Kind of experiment: Inhibition of Lactobacillus casei thymidylate synthase using MTHF and dUMP as substrates at 100 uM. The conditions noted are these: Lacticaseibacillus casei.

Experiment [5] has as its target T4, Thymidylate synthase (Pneumocystis carinii) (UniProt P13100).
T4 sequence (whole entry): T2 sequence (P13100 whole entry)
As to the kind of experiment: Inhibition of Pneumocystis carinii thymidylate synthase using MTHF and dUMP as substrates at 100 uM.

Experiment [6] in a line: Inhibition of Escherichia coli thymidylate synthase using MTHF and dUMP as substrates.
Experiment [7] is described as follows: Inhibition of Enterococcus fecalis thymidylate synthase using MTHF and dUMP as substrates. Details: species or system Enterococcus faecalis.

Active and inactive are the calls of the source. The rule behind the calls is not given here.

In general, Ki refers to the equilibrium dissociation constant of an inhibitor or competing ligand from its target. Higher therefore signals lower affinity. Consider `C/C=C/C(=O)Oc1ccc2c3c(cccc13)C(=O)O2`, for which the Ki is 6 µM at Thymidylate synthase [1] and 10 µM at Thymidylate synthase [2]. In addition, the inhibition result (in the experiment with Enterococcus faecalis; in [3]; with Escherichia coli) was “inactive” in each case.

`O=C(Oc1ccc2c3c(cccc13)C(=O)O2)c1ccc(SC(F)(F)F)cc1`: the inhibition entry (with Enterococcus faecalis; in experiment [4]; in experiment [3]; with Escherichia coli; in experiment [5]) was “inactive” each time.

Take `O=C(Oc1ccc2c3c(cccc13)C(=O)O2)c1ccc2c(c1)OCO2`: the inhibition result (in the experiment on Enterococcus faecalis; in experiment [4]; in experiment [3]; with Escherichia coli; in experiment [5]) was “inactive” in each case.

On to `N#Cc1cccc(C(=O)Oc2ccc3c4c(cccc24)C(=O)O3)c1`, for which the Ki came out at 0.39 µM at Thymidylate synthase [1], 0.31 µM at Thymidylate synthase [2], 4 µM in experiment [6] and 14 µM in [7].

Take `O=C(Oc1ccc2c3c(cccc13)C(=O)O2)c1cccc(C(F)(F)F)c1`: the Ki on Thymidylate synthase [1] came out at 33 µM; in experiment [7], 41 µM. Moreover, the inhibition entry (in [3]; with Escherichia coli; in experiment [5]) was “inactive” each time.

`CC(C)COC(=O)Oc1ccc2c3c(cccc13)C(=O)O2` registered a Ki at Thymidylate synthase [1] of 9 µM. Also, the inhibition result (in the experiment with Enterococcus faecalis; in [3]; in the experiment on Escherichia coli; in [5]) was “inactive” throughout.

In the case of `C=CC(=O)Oc1ccc2c3c(cccc13)C(=O)O2`, the Ki came to 10 µM on Thymidylate synthase [1], 19 µM at Thymidylate synthase [2] and 41 µM in experiment [7].

In the case of `O=C(Oc1ccc2c3c(cccc13)C(=O)O2)c1ccc([N+](=O)[O-])cc1`, the Ki at Thymidylate synthase [1] came to 1.2 µM; on Thymidylate synthase [2], 3.5 µM; in [6], 6 µM; in experiment [7], 27 µM.

Regarding `CCOC(=O)Oc1ccc2c3c(cccc13)C(=O)O2`, the Ki at Thymidylate synthase [1] is 10 µM; on Thymidylate synthase [2] it was 34 µM; in [6] it was 67 µM; in [7], 37 µM.

With `O=C1Oc2ccc(OC(=O)C3CCCCC3)c3cccc1c23`, the Ki on Thymidylate synthase [1] was determined as 49 µM; on Thymidylate synthase [2], 18 µM; in experiment [6], 66 µM. Also, the inhibition entry (in the experiment on Enterococcus faecalis; in experiment [3]) was “inactive” throughout.

Turning to `O=C(Oc1ccc2c3c(cccc13)C(=O)O2)c1ccco1`, the Ki at Thymidylate synthase [1] was 13 µM; at Thymidylate synthase [2], 15 µM; in [7], 20 µM. Further, the inhibition result in the experiment on Escherichia coli is “inactive”.
